From patent US7781580B2, “Stilbene derivatives as new cancer therapeutic agents” (Virginia Commonwealth University, priority 2007, dated 2010)

Columns and labels:
Chk2−/− cells = test: cell cycle analysis, Chk2-/- MDA-MB231 derivative; type: cell-based
Procedure: Cells were treated with various concentrations of stilbene 4a or CA4 for 16 hours followed by PI staining and FACscan analysis. […] A unique feature of stilbene 4a was noted when cells were treated with 30 nM.
Due to the structural similarity between stilbene 4a and CA4, we investigated the difference in the biological activity of these two compounds in MDA-MB231 breast cancer cells and their Chk2−/− derivatives. […] MDA-MB231 cells were treated with 10 nM stilbene 4a or 1 nM CA4. […] However, a difference in cell cycle change was observed following treatment with 30 nM of stilbene 4a versus 3 nM of CA4. […] This was also the case for cells treated with 100 nM stilbene 4a. A significant subG1/0 population was also noted. […] One possible effect could be a DNA damage response, which is a common mechanism of multiple chemotherapeutic agents but not one of pure microtubule-interfering agents such a paclitaxel or vincristine. […] We then obtained conditional Chk1−/− and Chk2−/− cells, which were derived from the same MDA-MB231 cells for the same flow cytometry analysis. […] In contrast, Chk2−/− cells were more sensitive to stilbene 4a. […] This mechanism is not obvious in higher drug concentrations at which the G2 arrest from microtubule interference is dominant. Therefore, in addition to their microtubule interfering effect, stilbenes have another mechanism to induce cell death. Thus, the use of a Chk2 inhibitor in combination with stilbenes may be a viable approach to enhancing the beneficial therapeutic effects of stilbenes.

UCI101 cells = test: cell cycle analysis (propidium iodide, FACScan), UCI101; type: cell-based
Procedure: Cells were stained with propidium iodide and analyzed with FACScan. Both 5b at 3 μM and stilbene 4a at 30 nM induce a subG0/1 population that represents the dead population. At higher concentrations of either compound, nearly all cells are dead.
(a) In vitro sensitivity of UCI101 cells toward three potential stilbene prodrugs, 5a-c, was tested in 96-well plates using Alamar Blue™ assays to determine cell growth inhibition. […] (b) 5b induces cell cycle change and apoptosis in UCI101 cells. […] A subG0/1 population, representing apoptotic cells, appeared along with a decrease of the G1/G2 ratio after cells were treated with 3 μM 5b. […] (c) Cells treated with stilbene 4a and 5b were stained with phospho-histone 3B, a mitotic marker. The positive signals of phospho-histone 3B were shown in green and nuclei were stained with DAPI in blue. […] (d) In vivo efficacy of 5b compared with stilbene 4a. Nude mice were injected with UCI101 ovarian cancer cells and treated with 7 doses of 5b,c or stilbene 4a every 2-3 days. Tumor volume was calculated and plotted against days.

In the case of `COc1cc(/C=C\c2ccc(OC)c(N)c2)cc(OC)c1` [4a, (Z)-5-[2-(3,5-Dimethoxy-phenyl)-vinyl]-2-methoxy-phenylamine], the “cell cycle change at 10 nM” value (Chk2−/− cells; 10 nM) is reported as “a significant subG1/0 population developed without G2 arrest”, the “change of effective concentration versus MDA-MB231” value (Chk2−/− cells; 16 hours) is reported as “decreased by three fold” and the “cell cycle effect” value (UCI101 cells; 4a at 30, 100 nM, 5b at 1, 3, 10 μM) is reported as “induced G2/M cell cycle arrest and accumulation of the subG1/0 population”. For the same compound, the “concentration inducing a subG0/1 (dead) population” value (UCI101 cells; 24 hours) was 30 nM.
